Assay results: ChEMBL document CHEMBL4342449, “Isolation of a High-Affinity Cannabinoid for the Human CB1 Receptor from a Medicinal Cannabis sativa Variety: Δ9-Tetrahydrocannabutol, the Butyl Homologue of Δ9-Tetrahydrocannabinol” (J Nat Prod, 2020)
Calls of active or inactive are those of the source. No cut-off for these calls is given here.

How the values were obtained:
Cannabinoid receptor 1 = Cannabinoid receptor 1 (Homo sapiens, UniProt P21554); test: Binding affinity to human CB1 receptor
Mus musculus [1] = test: (§1) Analgesic activity in formalin-induced nociception CD-1 mouse model assessed as reduction in pain behaviour by measuring less licking of formalin injected hind paw at 3 mg/kg, ip pretreated with compound 20 mins prior to formalin induction measured during first phase (0 to 7 mins after formalin injection) by formalin test; format: functional, organism-based
Mus musculus [2] = test: as §1, with “lifting” for “licking”; format: functional, organism-based
Mus musculus [3] = test: as §1, with “favoring” for “licking”; format: functional, organism-based
Mus musculus [4] = test: as §1, with “shaking” for “licking”; format: functional, organism-based
Mus musculus [5] = test: as §1, with “flinching” for “licking”; format: functional, organism-based
Mus musculus [6] = test: as §1, with “second” for “first”, “(every 5 mins for 15” for “(0”, “60” for “7”; format: functional, organism-based
Mus musculus [7] = test: as §1, with “lifting” for “licking”, “second” for “first”, “(every 5 mins for 15” for “(0”, “60” for “7”; format: functional, organism-based
Mus musculus [8] = test: as §1, with “favoring” for “licking”, “second” for “first”, “(every 5 mins for 15” for “(0”, “60” for “7”; format: functional, organism-based
Mus musculus [9] = test: as §1, with “shaking” for “licking”, “second” for “first”, “(every 5 mins for 15” for “(0”, “60” for “7”; format: functional, organism-based
Mus musculus [10] = test: as §1, with “flinching” for “licking”, “second” for “first”, “(every 5 mins for 15” for “(0”, “60” for “7”; format: functional, organism-based
Mus musculus [11] = test: as §1, with “induction co-treated with AM251 and” for “induction”, “every 5” for “during first phase (0 to 7”, “for 1 hr” for “after formalin injection)”; format: functional, organism-based
Mus musculus [12] = test: as §1, with “lifting” for “licking”, “induction co-treated with AM251 and” for “induction”, “every 5” for “during first phase (0 to 7”, “for 1 hr” for “after formalin injection)”; format: functional, organism-based
Mus musculus [13] = test: as §1, with “favoring” for “licking”, “induction co-treated with AM251 and” for “induction”, “every 5” for “during first phase (0 to 7”, “for 1 hr” for “after formalin injection)”; format: functional, organism-based
Mus musculus [14] = test: as §1, with “shaking” for “licking”, “induction co-treated with AM251 and” for “induction”, “every 5” for “during first phase (0 to 7”, “for 1 hr” for “after formalin injection)”; format: functional, organism-based
Mus musculus [15] = test: as §1, with “flinching” for “licking”, “induction co-treated with AM251 and” for “induction”, “every 5” for “during first phase (0 to 7”, “for 1 hr” for “after formalin injection)”; format: functional, organism-based
Mus musculus [16] = test: as §1, with “induction co-treated with AM630 and” for “induction”, “every 5” for “during first phase (0 to 7”, “for 1 hr” for “after formalin injection)”; format: functional, organism-based
Mus musculus [17] = test: as §1, with “lifting” for “licking”, “induction co-treated with AM630 and” for “induction”, “every 5” for “during first phase (0 to 7”, “for 1 hr” for “after formalin injection)”; format: functional, organism-based
Mus musculus [18] = test: as §1, with “favoring” for “licking”, “induction co-treated with AM630 and” for “induction”, “every 5” for “during first phase (0 to 7”, “for 1 hr” for “after formalin injection)”; format: functional, organism-based
Mus musculus [19] = test: as §1, with “shaking” for “licking”, “induction co-treated with AM630 and” for “induction”, “every 5” for “during first phase (0 to 7”, “for 1 hr” for “after formalin injection)”; format: functional, organism-based
Mus musculus [20] = test: as §1, with “flinching” for “licking”, “induction co-treated with AM630 and” for “induction”, “every 5” for “during first phase (0 to 7”, “for 1 hr” for “after formalin injection)”; format: functional, organism-based
Mus musculus [21] = test: In vivo Cannabi-mimetic activity in C57BL6/J mouse assessed as alteration on the spontaneous activity at 10 mg/kg, ip measured for 15 mins by open field test (reference value: 3283 +/- 390.5 cm); format: functional
Mus musculus [22] = test: In vivo Cannabi-mimetic activity in C57BL6/J mouse assessed as alteration on the spontaneous activity at 20 mg/kg, ip measured for 15 mins by open field test (reference value: 3283 +/- 390.5 cm); format: functional
Mus musculus [23] = test: In vivo Cannabi-mimetic activity in C57BL6/J mouse assessed as catalepsy bar at 10 mg/kg, ip by bar test (reference value: 3.5 +/- 0.65 sec); format: functional
Mus musculus [24] = test: In vivo Cannabi-mimetic activity in C57BL6/J mouse assessed as catalepsy bar at 20 mg/kg, ip by bar test (reference value: 3.5 +/- 0.65 sec); format: functional
Mus musculus [25] = test: In vivo Cannabi-mimetic activity in C57BL6/J mouse assessed as antinociceptive effect by measuring licking of hind paws at 10 mg/kg, ip measured for 85 mins by hot plate test (reference value: 10.15 +/- 0.70 sec); format: functional
Mus musculus [26] = test: In vivo Cannabi-mimetic activity in C57BL6/J mouse assessed as antinociceptive effect by measuring licking of hind paws at 20 mg/kg, ip measured for 85 mins by hot plate test (reference value: 10.15 +/- 0.70 sec); format: functional
Mus musculus [27] = test: In vivo Cannabi-mimetic activity in C57BL6/J mouse assessed as rectal temperature at 10 mg/kg, ip measured after 50 mins (reference value: 0.53 +/- 0.21 degreeC); format: functional
Mus musculus [28] = test: In vivo Cannabi-mimetic activity in C57BL6/J mouse assessed as rectal temperature at 20 mg/kg, ip measured after 50 mins (reference value: 0.53 +/- 0.21 degreeC); format: functional

Cannabinoid receptor 1, sequence (P21554 whole entry): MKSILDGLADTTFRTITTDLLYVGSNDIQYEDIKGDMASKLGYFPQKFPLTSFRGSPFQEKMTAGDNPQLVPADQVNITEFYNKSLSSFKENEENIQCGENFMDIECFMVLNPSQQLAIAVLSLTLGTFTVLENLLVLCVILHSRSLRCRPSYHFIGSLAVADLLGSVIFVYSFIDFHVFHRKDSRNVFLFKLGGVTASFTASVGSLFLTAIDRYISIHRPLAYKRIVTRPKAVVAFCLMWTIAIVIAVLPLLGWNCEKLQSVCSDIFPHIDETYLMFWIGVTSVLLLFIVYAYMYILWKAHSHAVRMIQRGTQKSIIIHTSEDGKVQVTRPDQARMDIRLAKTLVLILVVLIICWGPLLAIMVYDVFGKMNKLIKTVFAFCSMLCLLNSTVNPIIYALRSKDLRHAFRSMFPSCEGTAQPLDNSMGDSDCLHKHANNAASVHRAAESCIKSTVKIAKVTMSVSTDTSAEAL

**Q.** How did the Ki (Cannabinoid receptor 1) turn out when `CCCc1cc(O)c2c(c1)OC(C)(C)[C@@H]1CCC(C)=C[C@@H]21` [TETRAHYDROCANNABIVARIN] was run?
**A.** 75.4 nM

**Q.** What does the source list for `CCCCc1cc(O)c2c(c1)OC(C)(C)[C@@H]1CCC(C)=C[C@@H]21`?
**A.** Activity (Mus musculus [1]): Active; Activity (Mus musculus [2]): Active; Activity (Mus musculus [3]): Active; Activity (Mus musculus [4]): Active; Activity (Mus musculus [5]): Active; Activity (Mus musculus [6]): Active; Activity (Mus musculus [7]): Active; Activity (Mus musculus [8]): Active; Activity (Mus musculus [9]): Active; Activity (Mus musculus [10]): Active; Activity (Mus musculus [11]): inactive; Activity (Mus musculus [12]): inactive; Activity (Mus musculus [13]): inactive; Activity (Mus musculus [14]): inactive; Activity (Mus musculus [15]): inactive; Activity (Mus musculus [16]): inactive; Activity (Mus musculus [17]): inactive; Activity (Mus musculus [18]): inactive; Activity (Mus musculus [19]): inactive; Activity (Mus musculus [20]): inactive; Activity (Mus musculus [21]): 3220 cm; Activity (Mus musculus [22]): 3591 cm; Time (Mus musculus [23]): 3 s; Time (Mus musculus [24]): 13 s; Time (Mus musculus [25]): 7.94 s; Time (Mus musculus [26]): 17.5 s; Activity (Mus musculus [27]): -0.28 °C; Activity (Mus musculus [28]): 0.4 °C
